Measurements published in patent US11472803B2, “7-substituted 1-aryl-naphthyridine-3-carboxylic acid amides and use thereof” (Bayer Aktiengesellschaft, priority 2016, dated 2022).

Target: T1, human M2 receptor (Homo sapiens, UniProt P08172)
T1 construct: expressed in transfected cells; host or cells: CHO-DUKX (CHO-DUKX-M2-GIRK)
T1 sequence (P08172 1-466): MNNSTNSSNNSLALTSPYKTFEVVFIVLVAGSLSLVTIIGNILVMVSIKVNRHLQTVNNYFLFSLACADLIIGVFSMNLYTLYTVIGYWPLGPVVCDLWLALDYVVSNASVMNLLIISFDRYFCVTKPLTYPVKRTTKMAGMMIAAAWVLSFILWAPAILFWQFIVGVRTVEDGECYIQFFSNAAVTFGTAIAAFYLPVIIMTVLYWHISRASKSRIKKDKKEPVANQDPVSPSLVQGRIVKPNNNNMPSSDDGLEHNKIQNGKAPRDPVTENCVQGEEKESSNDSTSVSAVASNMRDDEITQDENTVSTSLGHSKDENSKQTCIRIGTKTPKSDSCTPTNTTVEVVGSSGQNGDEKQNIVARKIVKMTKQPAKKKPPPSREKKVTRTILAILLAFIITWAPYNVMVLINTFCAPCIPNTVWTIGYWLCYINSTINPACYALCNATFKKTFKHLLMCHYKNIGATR
Assay: Functional M2-GIRK1/4 activation test: allosteric potency (EC50) and efficiency at EC20 acetylcholine
Format: cell-based
Details: CHO-DUKX-M2-GIRK cells; for EC50: voltage-sensitive dye, acetylcholine at EC20, in some cases mean of two or more determinations; for Emax / Efficiency: boosting of the acetylcholine effect at EC20 acetylcholine concentration
Description: The binding of orthosteric agonists (endogenous ligand: acetylcholine) to the M2 receptor leads to receptor activation or a change in conformation of the receptor in the manner of a shift in equilibrium in favour of the active receptor conformation.
The agonist-induced change in conformation of the M2 receptor results in a Gαi protein activation. […] Under physiological conditions, the result is then a selective efflux of potassium from the cell along the electrochemical gradient. […] The extent of hyperpolarization can therefore be regarded as a measure of the activation of the M2 receptor.
The test cell used is a recombinant CHO-DUKX cell line which has been stably transfected with cDNA coding for the human M2 receptor and with cDNA coding for both GIRK1/4 subunits (CHO-DUKX-M2-GIRK). The transmembrane potential, or the relative changes in the transmembrane potential as a function of substance addition or M2 activation, is determined by means of a voltage-sensitive dye (FLIPR Membrane Potential Assay Kit Blue, Molecular Devices #R8034) and the measurement of cell fluorescence using a proprietary fluorescence imaging instrument.
The sowing medium consisted of MEM alpha medium (supplemented with 5% PCS, 2% Glutamax, no genticin).
For the particular measurement, the medium was removed and the cells were laden with the volt-age-sensitive dye for at least 6 min at room temperature (30 μl of loading buffer per 384-well). This was followed, in a first measurement, by the determination of the fluorescence for the resting transmembrane potential for a period of 5 sec. Thereafter, 10 μl in each case of the test substances diluted in loading buffer were added, followed by a second measurement to determine the transmembrane potential for a period of 50 sec in 1 sec increments. Finally, the cells were admixed with 10 μl of agonist solution (acetylcholine dissolved in loading buffer). Acetylcholine was used at the concentration corresponding to the EC20, which had been determined in a preliminary test. The M2-mediated GIRK1/4 activation or hyperpolarization was then monitored in a third measurement over a period of 60 sec. The EC50 value (degree of allosteric potency of test compound) and the efficiency (measure of the boosting of the acetylcholine effect at an EC20 acetylcholine concentration) were determined with the aid of a 4-parameter logistic function (Hill function).

`O=C(NC(C(F)(F)F)C(F)(F)F)c1cn(-c2ncc(F)cc2F)c2nc(N3CCC[C@@H]3CO)c(F)cc2c1=O` [Example 197, 1-(3,5-Difluoropyridin-2-yl)-6-fluoro-N-(1,1,1,3,3,3-hexafluoropropan-2-yl)-7-[(2R)-2-(hydroxymethyl)pyrrolidin-1-yl]-4-oxo-1,4-dihydro-1,8-naphthyridine-3-carboxamide] showed an EC50 of 51 nM and an Emax of 100%.
In the case of `CCC(COC(F)(F)F)NC(=O)c1cn(-c2c(F)cc(F)cc2F)c2nc(N3CC[C@H](O)C3)c(F)cc2c1=O` (single isomer, unassigned) [Example 110], the EC50 is reported as 19 nM and the Emax is reported as 100%.
With `CC(C)(C)NC(=O)c1cn(-c2c(F)cc(F)cc2F)c2nc(N3C[C@@H](O)[C@@H](O)C3)c(F)cc2c1=O` [Example 80, N-tert-Butyl-7-[(3R,4S)-3,4-dihydroxypyrrolidin-1-yl]-6-fluoro-4-oxo-1-(2,4,6-trifluoro-phenyl)-1,4-dihydro-1,8-naphthyridine-3-carboxamide] the EC50 was 24 nM and the Emax was 100%.
With `CC(C)[C@@H](C)NC(=O)c1cn(-c2c(F)cc(F)cc2F)c2nc(N3CC[C@H](O)C3)c(F)cc2c1=O` [Example 120, 6-Fluoro-7-[(3S)-3-hydroxypyrrolidin-1-yl]-N-[(2R)-3-methylbutan-2-yl]-4-oxo-1-(2,4,6-tri-fluorophenyl)-1,4-dihydro-1,8-naphthyridine-3-carboxamide] the EC50 was 10.5 nM and the Emax was 96%.
`O=C(NC(C(F)(F)F)C(F)(F)F)c1cn(-c2ncc(F)cc2F)c2nc(N3CCCC[C@@H]3CO)c(F)cc2c1=O` [Example 190, 1-(3,5-Difluoropyridin-2-yl)-6-fluoro-N-(1,1,1,3,3,3-hexafluoropropan-2-yl)-7-[(2R)-2-(hydroxymethyl)piperidin-1-yl]-4-oxo-1,4-dihydro-1,8-naphthyridine-3-carboxamide] showed an EC50 of 83.5 nM and an Emax of 100%.
In the case of `CCC(C)(CC)NC(=O)c1cn(-c2ncc(F)cc2F)c2nc(N3C[C@@H](O)[C@H](O)C3)c(F)cc2c1=O` [Example 76, 1-(3,5-Difluoropyridin-2-yl)-7-[(3R,4R)-3,4-dihydroxypyrrolidin-1-yl]-6-fluoro-N-(3-methylpentan-3-yl)-4-oxo-1,4-dihydro-1,8-naphthyridine-3-carboxamide], the EC50 is reported as 29 nM and the Emax is reported as 100%.
Molecule `CC(C)[C@@H](C)NC(=O)c1cn(-c2c(F)cc(F)cc2F)c2nc(N3C[C@@H](O)[C@@H](O)C3)c(F)cc2c1=O` [Example 99, 7-[(3R,4S)-3,4-Dihydroxypyrrolidin-1-yl]-6-fluoro-N-[(2R)-3-methylbutan-2-yl]-4-oxo-1-(2,4,6-trifluorophenyl)-1,4-dihydro-1,8-naphthyridine-3-carboxamide] has an EC50 of 35.5 nM and an Emax of 96%.
For `O=C(N[C@@H](C1CC1)C(F)(F)F)c1cn(-c2c(F)cc(F)cc2F)c2nc(N3CCCC[C@H]3CO)c(F)cc2c1=O` [Example 58, N-[(1S)-1-Cyclopropyl-2,2,2-trifluoroethyl]-6-fluoro-7-[(2S)-2-(hydroxymethyl)piperidin-1-yl]-4-oxo-1-(2,4,6-trifluorophenyl)-1,4-dihydro-1,8-naphthyridine-3-carboxamide], the EC50 was 104 nM and the Emax was 90%.
In the case of `C[C@H]1CN(c2nc3c(cc2F)c(=O)c(C(=O)N[C@@H](C2CC2)C(F)(F)F)cn3-c2c(F)cc(F)cc2F)CCN1` [Example 82, N-[(1S)-1-Cyclopropyl-2,2,2-trifluoroethyl]-6-fluoro-7-[(3S)-3-methylpiperazin-1-yl]-4-oxo-1-(2,4,6-trifluorophenyl)-1,4-dihydro-1,8-naphthyridine-3-carboxamide], the EC50 is reported as 140 nM and the Emax is reported as 65%.
With `O=C(NC(c1ccccc1Cl)C(F)(F)F)c1cn(-c2c(F)cc(F)cc2F)c2nc(N3C[C@@H](O)[C@H](O)C3)c(F)cc2c1=O` (mixture of isomers) [Example 131, N-[1-(2-Chlorophenyl)-2,2,2-trifluoroethyl]-7-[(3R,4R)-3,4-dihydroxypyrrolidin-1-yl]-6-fluoro-4-oxo-1-(2,4,6-trifluorophenyl)-1,4-dihydro-1,8-naphthyridine-3-carboxamide] the EC50 was 4.6 nM and the Emax was 100%.
`CN(C)c1nc2c(cc1F)c(=O)c(C(=O)NC(C(F)(F)F)C(F)(F)F)cn2-c1c(F)cc(F)cc1Cl` [Example 180, 1-(2-Chloro-4,6-difluorophenyl)-7-(dimethylamino)-6-fluoro-N-(1,1,1,3,3,3-hexafluoropropan-2-yl)-4-oxo-1,4-dihydro-1,8-naphthyridine-3-carboxamide] showed an EC50 of 8.5 nM and an Emax of 86%.
`CC(NC(=O)c1cn(-c2c(F)cc(F)cc2F)c2nc(N3C[C@@H](O)[C@H](O)C3)c(F)cc2c1=O)C(F)(F)C(F)(F)F` (mixture of isomers) [Example 8, 7-[(3R,4R)-3,4-Dihydroxypyrrolidin-1-yl]-6-fluoro-4-oxo-N-[3,3,4,4,4-pentafluorobutan-2-yl]-1-(2,4,6-trifluorophenyl)-1,4-dihydro-1,8-naphthyridine-3-carboxamide] was tested, and the Emax was 96%.
Work on `O=C(N[C@@H](C1CC1)C(F)(F)F)c1cn(-c2c(F)cccc2F)c2nc(N3C[C@@H](O)[C@H](O)C3)c(F)cc2c1=O` [Example 2, N-[(1S)-1-Cyclopropyl-2,2,2-trifluoroethyl]-1-(2,6-difluorophenyl)-7-[(3R,4R)-3,4-dihydroxypyrrolidin-1-yl]-6-fluoro-4-oxo-1,4-dihydro-1,8-naphthyridine-3-carboxamide] yielded an EC50 of 35.5 nM and an Emax of 96%.
`CC(C)(NC(=O)c1cn(-c2c(F)cc(F)cc2F)c2nc(N3CC[C@H](O)C3)c(F)cc2c1=O)C(F)(F)F` [Example 125, 6-Fluoro-7-[(3S)-3-hydroxypyrrolidin-1-yl]-4-oxo-N-(1,1,1-trifluoro-2-methylpropan-2-yl)-1-(2,4,6-trifluorophenyl)-1,4-dihydro-1,8-naphthyridine-3-carboxamide] showed an EC50 of 12 nM and an Emax of 97%.
For `C[C@H](O)CN(C)c1nc2c(cc1F)c(=O)c(C(=O)N[C@@H](C1CC1)C(F)(F)F)cn2-c1c(F)cc(F)cc1Cl` [Example 72, 1-(2-Chloro-4,6-difluorophenyl)-N-[(1S)-1-cyclopropyl-2,2,2-trifluoroethyl]-6-fluoro-7-{[(2S)-2-hydroxypropyl](methyl)amino}-4-oxo-1,4-dihydro-1,8-naphthyridine-3-carboxamide], the EC50 was 11 nM and the Emax was 89%.
In the case of `C[C@H](NC(=O)c1cn(-c2c(F)cc(F)cc2Cl)c2nc(N3C[C@@H](O)[C@H](O)C3)c(F)cc2c1=O)C1CC1` [Example 43, 1-(2-chloro-4,6-difluorophenyl)-N-[(1S)-1-cyclopropylethyl]-7-[(3R,4R)-3,4-dihydroxypyrrolidin-1-yl]-6-fluoro-4-oxo-1,4-dihydro-1,8-naphthyridine-3-carboxamide], the EC50 is reported as 7.5 nM and the Emax is reported as 100%.
For `CC(NC(=O)c1cn(-c2ncc(F)cc2F)c2nc(N3CC[C@H](O)C3)c(F)cc2c1=O)C(F)(F)C(F)(F)F` (single isomer, unassigned) [Example 129], the EC50 was 66 nM and the Efficiency was 95%.
`CC[C@H](NC(=O)c1cn(-c2c(F)cccc2F)c2nc(N(C)CCO)c(F)cc2c1=O)C(F)(F)F` [Example 4, 1-(2,6-Difluorophenyl)-6-fluoro-7-[(2-hydroxyethyl)(methyl)amino]-4-oxo-N-[(2S)-1,1,1-trifluorobutan-2-yl]-1,4-dihydro-1,8-naphthyridine-3-carboxamide] was tested, and the EC50 was 38 nM and the Emax was 89%.
Work on `CCC(C)(C)NC(=O)c1cn(-c2ncc(F)cc2F)c2nc(N3C[C@@H](O)[C@H](O)C3)c(F)cc2c1=O` [Example 75, 1-(3,5-Difluoropyridin-2-yl)-7-[(3R,4R)-3,4-dihydroxypyrrolidin-1-yl]-6-fluoro-N-(2-methyl-butan-2-yl)-4-oxo-1,4-dihydro-1,8-naphthyridine-3-carboxamide] yielded an EC50 of 87 nM and an Emax of 100%.
`CCN(CC(C)O)c1nc2c(cc1F)c(=O)c(C(=O)N[C@@H](C1CC1)C(F)(F)F)cn2-c1c(F)cc(F)cc1F` (single isomer, unassigned) [Example 67] showed an EC50 of 10 nM and an Efficiency of 95%.
